PubChem BioAssay (NCI)
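48-hour exposure; five concentrations; linearly interpolated endpoints. GI50 is the concentration that inhibits growth by half. Definition used: TGI = concentration required for complete inhibition of growth.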

How the values were obtained:
Test in all cases: DTP human tumour cell line panel, 48 h
T-47D breast = tested on: T-47D breast
RPMI-8226 leukemia = tested on: RPMI-8226 leukemia
A498 renal = tested on: A498 renal
CAKI-1 renal = tested on: CAKI-1 renal
U251 CNS = tested on: U251 CNS
SF-295 CNS = tested on: SF-295 CNS
HOP-62 NSCLC = tested on: HOP-62 NSCLC
HS 578T breast = tested on: HS 578T breast
LOX IMVI melanoma = tested on: LOX IMVI melanoma
UACC-62 melanoma = tested on: UACC-62 melanoma
COLO 205 colon = tested on: COLO 205 colon
SW-620 colon = tested on: SW-620 colon
SR leukemia = tested on: SR leukemia
EKVX NSCLC = tested on: EKVX NSCLC
NCI/ADR-RES ovarian = tested on: NCI/ADR-RES ovarian
NCI-H522 lung = tested on: NCI-H522 lung
HCC-2998 colon = tested on: HCC-2998 colon
SF-539 CNS = tested on: SF-539 CNS
NCI-H226 lung = tested on: NCI-H226 lung
MDA-MB-435 = tested on: MDA-MB-435
MCF7 breast = tested on: MCF7 breast
UACC-257 melanoma = tested on: UACC-257 melanoma
MALME-3M melanoma = tested on: MALME-3M melanoma
SK-MEL-5 melanoma = tested on: SK-MEL-5 melanoma
SNB-75 CNS = tested on: SNB-75 CNS
DU-145 prostate = tested on: DU-145 prostate
OVCAR-8 ovarian = tested on: OVCAR-8 ovarian
CCRF-CEM leukemia = tested on: CCRF-CEM leukemia
SK-MEL-2 melanoma = tested on: SK-MEL-2 melanoma
HCT-116 colon = tested on: HCT-116 colon
OVCAR-5 ovarian = tested on: OVCAR-5 ovarian
OVCAR-4 ovarian = tested on: OVCAR-4 ovarian
SK-OV-3 ovarian = tested on: SK-OV-3 ovarian
HCT-15 colon = tested on: HCT-15 colon
TK-10 renal = tested on: TK-10 renal
HOP-92 NSCLC = tested on: HOP-92 NSCLC
PC-3 prostate = tested on: PC-3 prostate
MDA-MB-231 breast = tested on: MDA-MB-231 breast
MOLT-4 leukemia = tested on: MOLT-4 leukemia
UO-31 renal = tested on: UO-31 renal
786-0 renal = tested on: 786-0 renal
A549 NSCLC = tested on: A549 NSCLC
IGROV1 ovarian = tested on: IGROV1 ovarian
BT-549 breast = tested on: BT-549 breast
KM12 colon = tested on: KM12 colon
K-562 leukemia = tested on: K-562 leukemia
ACHN renal = tested on: ACHN renal
SF-268 CNS = tested on: SF-268 CNS
HT29 colon = tested on: HT29 colon
NCI-H460 lung = tested on: NCI-H460 lung
RXF 393 renal = tested on: RXF 393 renal
SNB-19 CNS = tested on: SNB-19 CNS
M14 melanoma = tested on: M14 melanoma
HL-60(TB) leukemia = tested on: HL-60(TB) leukemia
OVCAR-3 ovarian = tested on: OVCAR-3 ovarian
SK-MEL-28 melanoma = tested on: SK-MEL-28 melanoma
SN12C renal = tested on: SN12C renal

N#Cc1c(-c2ccc(Cl)cc2)nc(SCc2ccc(F)cc2)nc1N1CCNCC1
GI50 (T-47D breast): 1690 nM
TGI (T-47D breast): 3.52 µM
GI50 (RPMI-8226 leukemia): 2190 nM
TGI (RPMI-8226 leukemia): 5.23 µM
GI50 (A498 renal): 14.3 µM
TGI (A498 renal): 30.1 µM
GI50 (CAKI-1 renal): 1400 nM
TGI (CAKI-1 renal): 2710 nM
GI50 (U251 CNS): 1690 nM
TGI (U251 CNS): 3.13 µM
GI50 (SF-295 CNS): 1880 nM
TGI (SF-295 CNS): 3.47 µM
GI50 (HOP-62 NSCLC): 1640 nM
TGI (HOP-62 NSCLC): 3.26 µM
GI50 (HS 578T breast): 1950 nM
TGI (HS 578T breast): 4.45 µM
GI50 (LOX IMVI melanoma): 1700 nM
TGI (LOX IMVI melanoma): 3.07 µM
GI50 (UACC-62 melanoma): 1760 nM
TGI (UACC-62 melanoma): 3.33 µM
GI50 (COLO 205 colon): 1750 nM
TGI (COLO 205 colon): 3.2 µM
GI50 (SW-620 colon): 1980 nM
TGI (SW-620 colon): 4.04 µM
GI50 (SR leukemia): 1990 nM
TGI (SR leukemia): 4.79 µM
GI50 (EKVX NSCLC): 4.98 µM
TGI (EKVX NSCLC): 19.7 µM
GI50 (NCI/ADR-RES ovarian): 1730 nM
TGI (NCI/ADR-RES ovarian): 3.28 µM
GI50 (NCI-H522 lung): 1610 nM
TGI (NCI-H522 lung): 3.08 µM
GI50 (HCC-2998 colon): 1800 nM
TGI (HCC-2998 colon): 3.22 µM
GI50 (SF-539 CNS): 1710 nM
TGI (SF-539 CNS): 3.16 µM
GI50 (NCI-H226 lung): 5.97 µM
TGI (NCI-H226 lung): 24.9 µM
GI50 (MDA-MB-435): 1680 nM
TGI (MDA-MB-435): 3.05 µM
GI50 (MCF7 breast): 1650 nM
TGI (MCF7 breast): 3.29 µM
GI50 (UACC-257 melanoma): 1640 nM
TGI (UACC-257 melanoma): 3.13 µM
GI50 (MALME-3M melanoma): 1690 nM
TGI (MALME-3M melanoma): 3.35 µM
GI50 (SK-MEL-5 melanoma): 14.3 µM
TGI (SK-MEL-5 melanoma): 29.5 µM
GI50 (SNB-75 CNS): 1460 nM
TGI (SNB-75 CNS): 2830 nM
GI50 (DU-145 prostate): 2590 nM
TGI (DU-145 prostate): 6.54 µM
GI50 (OVCAR-8 ovarian): 1840 nM
TGI (OVCAR-8 ovarian): 3.45 µM
GI50 (CCRF-CEM leukemia): 2820 nM
TGI (CCRF-CEM leukemia): 8.28 µM
GI50 (SK-MEL-2 melanoma): 14.7 µM
TGI (SK-MEL-2 melanoma): 29.3 µM
GI50 (HCT-116 colon): 1720 nM
TGI (HCT-116 colon): 3.09 µM
GI50 (OVCAR-5 ovarian): 2200 nM
TGI (OVCAR-5 ovarian): 6.25 µM
GI50 (OVCAR-4 ovarian): 1780 nM
TGI (OVCAR-4 ovarian): 4.06 µM
GI50 (SK-OV-3 ovarian): 10.4 µM
TGI (SK-OV-3 ovarian): 24.8 µM
GI50 (HCT-15 colon): 1810 nM
TGI (HCT-15 colon): 3.45 µM
GI50 (TK-10 renal): 10.6 µM
TGI (TK-10 renal): 23.9 µM
GI50 (HOP-92 NSCLC): 1610 nM
TGI (HOP-92 NSCLC): 8.51 µM
GI50 (PC-3 prostate): 1790 nM
TGI (PC-3 prostate): 3.75 µM
GI50 (MDA-MB-231 breast): 1830 nM
TGI (MDA-MB-231 breast): 3.47 µM
GI50 (MOLT-4 leukemia): 2430 nM
TGI (MOLT-4 leukemia): 6.54 µM
GI50 (UO-31 renal): 1400 nM
TGI (UO-31 renal): 2830 nM
GI50 (786-0 renal): 1610 nM
TGI (786-0 renal): 3.2 µM
GI50 (A549 NSCLC): 1610 nM
TGI (A549 NSCLC): 3.06 µM
GI50 (IGROV1 ovarian): 1800 nM
TGI (IGROV1 ovarian): 3.57 µM
GI50 (BT-549 breast): 7.59 µM
TGI (BT-549 breast): 22.1 µM
GI50 (KM12 colon): 1910 nM
TGI (KM12 colon): 3.82 µM
GI50 (K-562 leukemia): 2090 nM
TGI (K-562 leukemia): 5.22 µM
GI50 (ACHN renal): 1800 nM
TGI (ACHN renal): 3.19 µM
GI50 (SF-268 CNS): 2270 nM
TGI (SF-268 CNS): 5.82 µM
GI50 (HT29 colon): 1740 nM
TGI (HT29 colon): 3.14 µM
GI50 (NCI-H460 lung): 1970 nM
TGI (NCI-H460 lung): 3.74 µM
GI50 (RXF 393 renal): 1530 nM
TGI (RXF 393 renal): 2870 nM
GI50 (SNB-19 CNS): 2210 nM
TGI (SNB-19 CNS): 6.02 µM
GI50 (M14 melanoma): 1670 nM
TGI (M14 melanoma): 3.09 µM
GI50 (HL-60(TB) leukemia): 1830 nM
TGI (HL-60(TB) leukemia): 4.2 µM
GI50 (OVCAR-3 ovarian): 1890 nM
TGI (OVCAR-3 ovarian): 3.71 µM
GI50 (SK-MEL-28 melanoma): 1740 nM
TGI (SK-MEL-28 melanoma): 3.15 µM
GI50 (SN12C renal): 1730 nM
TGI (SN12C renal): 3.33 µM
